For 52 molecules, MIC90, IC50 and selectivity ratio results are on record in ChEMBL document CHEMBL4043063, “Anti-tuberculosis activity and structure-activity relationships of oxygenated tricyclic carbazole alkaloids and synthetic derivatives” (Bioorg Med Chem, 2017).

Structures are written as SMILES. pIC50: −log10 of the molar value. Values after ≈ are worked out from the molar mass of the structure shown.

The test system of data set [1] is Mycobacterium tuberculosis. As to the kind of experiment: Antitubercular activity against Mycobacterium tuberculosis H37Rv by microplate alamar blue assay. The format is functional. Background: The colour change of resazurin is a common sign of viable cells or microbes.
The next data set has as its system Vero. Nature of the data set: Cytotoxicity against African green monkey Vero cells assessed as reduction in cell viability after 72 hrs by tetrazolium dye assay. To be noted: Chlorocebus sabaeus. The class given is cell-based.
Data set [2] is described as follows: Selectivity index, ratio of IC50 for African green monkey Vero cells to MIC90 for Mycobacterium tuberculosis H37Rv. The class given is toxicity. To be noted: read-out: Selectivity Index.

As usually defined, the MIC90 is an inhibitory concentration at the 90% level, which refers to growth in some studies and to a panel of isolates in others. By pIC50 is commonly meant −log10 of the IC50, conventionally taken in molar units.

In the case of `Cc1cc2c(cc1O)[nH]c1ccccc12`, the MIC90 in data set [1] came to 41.5 µM (≈ 8.19 µg/mL).

On to `COc1ccc2c([nH]c3cc(O)c(C)cc32)c1C=O`, for which the MIC90 in data set [1] was above 50 µM.

`COc1ccc2[nH]c3c(O)cc(C=O)cc3c2c1` gave an MIC90 in data set [1] of 6.9 µM (≈ 1.66 µg/mL). Further, in the data set with Vero, the pIC50 is below 4.30. For the same molecule, the selectivity ratio in data set [2] is above 7.2.

On to `O=C(O)c1cc2c([nH]c3ccccc32)c(-c2c[nH]c3ccccc23)c1O`, for which the MIC90 in data set [1] is above 50 µM.

`CCCCCCCc1c(C)c(OC)c(OC)c2c1[nH]c1ccccc12` displayed an MIC90 in data set [1] of 6.2 µM (≈ 2.1 µg/mL). Also, the pIC50 with Vero was below 4.30. Moreover, the selectivity ratio in data set [2] was above 8.1.

Turning to `COc1ccc2[nH]c3c(OC)cc(C)cc3c2c1`, in data set [1], the MIC90 was 45.1 µM (≈ 10.9 µg/mL).

In the case of `Cc1ccc(S(=O)(=O)Oc2cc(C)cc3c2[nH]c2cc(O)ccc23)cc1`, in data set [1], the MIC90 worked out at 19.7 µM (≈ 7.24 µg/mL).

Turning to `COC(=O)c1cc2c(cc1OC)[nH]c1ccc(OC)cc12`, in data set [1], the MIC90 was 24.4 µM (≈ 6.96 µg/mL).

`COC(=O)c1cc2c(cc1O)[nH]c1ccc(O)cc12` showed an MIC90 in data set [1] of 29.1 µM (≈ 7.49 µg/mL).

On to `COc1cc2[nH]c3cc(O)ccc3c2cc1C=O`, for which, in data set [1], the MIC90 came to 36.7 µM (≈ 8.85 µg/mL).

`COc1cc2[nH]c3c(C=O)c(OC)ccc3c2cc1C` yielded an MIC90 in data set [1] above 50 µM.

Take `Cc1cc2c(cc1OCc1ccccc1)[nH]c1ccccc12`: the MIC90 in data set [1] is above 50 µM.

`O=Cc1cc2c(cc1O)[nH]c1c(O)cccc12` had an MIC90 in data set [1] of 3.7 µM (≈ 0.841 µg/mL). Also, the negative-log IC50 (pIC50) in the data set with Vero was below 4.30. For the same molecule, in data set [2], the selectivity ratio is above 13.

As to `COc1cccc2c1[nH]c1cc(O)c(C)cc12`, the MIC90 in data set [1] was above 50 µM.

For the molecule `C#CC(C)(C)Oc1ccc2c(c1)[nH]c1c(OS(=O)(=O)c3ccc(C)cc3)cc(C)cc12`, in data set [1], the MIC90 was found to be 20.8 µM (≈ 9.02 µg/mL).

In data set [1], `COC(=O)c1cc2c(cc1O)[nH]c1cc(OC)ccc12` returned an MIC90 of 47.8 µM (≈ 13 µg/mL).

For the molecule `COc1ccc2c([nH]c3c(OC)cc(C)cc32)c1OC`, the MIC90 in data set [1] came out at 46.9 µM (≈ 12.7 µg/mL).

In data set [1], `CC(C)=CCc1ccc2[nH]c3ccccc3c2c1` had an MIC90 of 22.6 µM (≈ 5.32 µg/mL).

Turning to `COc1ccc2[nH]c3cc(O)c(C)cc3c2c1`, in data set [1], the MIC90 worked out at 1.5 µM (≈ 0.341 µg/mL). For the same molecule, the pIC50 in the data set with Vero is below 4.30. In data set [2], the selectivity ratio was above 33.

With `COc1cc2[nH]c3ccccc3c2cc1C(=O)O`, the MIC90 in data set [1] was above 50 µM.

In data set [1], `COc1ccc2[nH]c3c(OC)cc(C=O)cc3c2c1` displayed an MIC90 above 50 µM.

As for `CC(C)=CCc1c(O)ccc2c1[nH]c1c(OS(=O)(=O)c3ccc(C)cc3)cc(C)cc12`, the MIC90 in data set [1] was determined as 19.4 µM (≈ 8.45 µg/mL).

`CC(C)=CC(=O)Oc1ccc2c(c1)[nH]c1c(OS(=O)(=O)c3ccc(C)cc3)cc(C)cc12`: in data set [1], the MIC90 is 6.2 µM (≈ 2.79 µg/mL). The pIC50 in the data set with Vero is below 4.30. For the same molecule, in data set [2], the selectivity ratio is above 8.1.

In turn, `COC(=O)c1cc2c([nH]c3ccccc32)c(-c2cn(S(=O)(=O)c3ccccc3)c3ccccc23)c1O` displayed an MIC90 in data set [1] of 2.9 µM (≈ 1.44 µg/mL). Also, the pIC50 in the data set with Vero was below 4.30. Besides, the selectivity ratio in data set [2] was above 17.2.

On to `CC(C)=CCC/C(C)=C/Cc1c(O)c(C=O)cc2c1[nH]c1ccccc12`, for which the MIC90 in data set [1] is 24.1 µM (≈ 8.37 µg/mL).

Regarding `O=C(O)c1cc2c(cc1O)[nH]c1ccc(O)cc12`, the MIC90 in data set [1] is above 50 µM.

As for `COc1ccc2c([nH]c3c(O)cc(C)cc32)c1CC=C(C)C`, the MIC90 in data set [1] turned out to be 23.1 µM (≈ 6.82 µg/mL).

As to `Cc1cc2c(cc1OCc1ccccc1)[nH]c1c(O)cccc12`, the MIC90 in data set [1] amounted to 11.8 µM (≈ 3.58 µg/mL). Besides, in the data set with Vero, the pIC50 is 4.47. Further, the selectivity ratio in data set [2] came out at 2.9.

Turning to `COc1ccc2c(c1)[nH]c1c(Cc3ccccc3)c(O)c(C=O)cc12`, the MIC90 in data set [1] was 14.4 µM (≈ 4.77 µg/mL). Also, in the data set on Vero, the pIC50 was 4.13. The selectivity ratio in data set [2] was determined as 5.1.

`COc1cccc2[nH]c3cc(OCc4ccccc4)c(C)cc3c12` registered an MIC90 in data set [1] of 9.3 µM (≈ 2.95 µg/mL). For the same molecule, the negative-log IC50 (pIC50) with Vero is below 4.30. Further, the selectivity ratio in data set [2] is above 5.4.

The molecule `COC(=O)c1cc2c([nH]c3ccccc32)c(I)c1O` had an MIC90 in data set [1] of 24.6 µM (≈ 9.03 µg/mL).

`COc1cccc2c1[nH]c1cc(O)c(C=O)cc12` came in with an MIC90 in data set [1] of 29.3 µM (≈ 7.07 µg/mL).

`COC(=O)c1cc(OC)c2[nH]c3ccc(OC)cc3c2c1` yielded an MIC90 in data set [1] of 46.7 µM (≈ 13.3 µg/mL).

In data set [1], `CC(C)=CCC/C(C)=C/Cc1c(O)ccc2c1[nH]c1c(OS(=O)(=O)c3ccc(C)cc3)cc(C)cc12` returned an MIC90 of 20.5 µM (≈ 10.3 µg/mL).

In data set [1], `C=CC(C)(C)c1ccc2[nH]c3ccccc3c2c1` gave an MIC90 of 11 µM (≈ 2.59 µg/mL). The pIC50 with Vero is below 4.30. In data set [2], the selectivity ratio was above 4.5.

In data set [1], `COc1ccc2c([nH]c3cc(O)c(C=O)cc32)c1C=O` had an MIC90 of 2.8 µM (≈ 0.754 µg/mL). Moreover, the pIC50 in the data set on Vero is 4.33. In data set [2], the selectivity ratio amounted to 16.8.

`CC(C)=CCc1c(O)ccc2c1[nH]c1cc(O)c(C)cc12` showed an MIC90 in data set [1] of 29.4 µM (≈ 8.27 µg/mL).

Take `CC(C)=CCc1c(O)c(C)cc2c1[nH]c1ccccc12`: in data set [1], the MIC90 was 11.1 µM (≈ 2.95 µg/mL). Moreover, the pIC50 in the data set with Vero was below 4.30. The selectivity ratio in data set [2] was above 4.5.

In the case of `COc1ccc2c(c1)[nH]c1cc(O)c(C=O)cc12`, the MIC90 in data set [1] came out at 24.3 µM (≈ 5.86 µg/mL).

Consider `COc1ccc2c(c1)[nH]c1c(CC=C(C)C)c(O)c(C=O)cc12`, for which the MIC90 in data set [1] is 20.6 µM (≈ 6.37 µg/mL).

For `COc1ccc2c([nH]c3cc(O)c(C)cc32)c1CC=C(C)C`, in data set [1], the MIC90 was determined as 11.9 µM (≈ 3.52 µg/mL). In the data set on Vero, the pIC50 was below 4.30. Moreover, in data set [2], the selectivity ratio was above 4.2.

`COc1ccc2c(c1)[nH]c1cc(O)c(C)cc12` had an MIC90 in data set [1] above 50 µM.

In data set [1], `COC1=C(C)C(=O)c2[nH]c3ccccc3c2C1=O` [3-METHOXY-2-METHYLCARBAZOLE-1,4-QUINONE] registered an MIC90 of 4 µM (≈ 0.965 µg/mL). Besides, in the data set on Vero, the pIC50 was below 4.30. For the same molecule, the selectivity ratio in data set [2] was above 12.5.

With `COc1c(C)c(C[C@@H](C)O)c2[nH]c3ccc(CC=C(C)C)cc3c2c1O` [(R)-(-)-NEOCARAZOSTATIN B], the MIC90 in data set [1] is 34.5 µM (≈ 12.2 µg/mL).

The molecule `COC(=O)c1cc2c(cc1OC)[nH]c1ccccc12` [CLAUSINE L] had an MIC90 in data set [1] above 50 µM.

The molecule `COc1cc2[nH]c3ccccc3c2cc1C=O` [GLYCOSININE] had an MIC90 in data set [1] of 39.6 µM (≈ 8.92 µg/mL).

On to `COc1ccc2[nH]c3cc(OC)c(C=O)cc3c2c1` [GLYCOZOLIDAL], for which, in data set [1], the MIC90 is above 50 µM.

`COc1ccc2[nH]c3cc(OC)c(C)cc3c2c1` [GLYCOZOLIDINE] came in with an MIC90 in data set [1] above 50 µM.

In turn, `CC(C)=CCc1c(O)c(C=O)cc2c1[nH]c1ccccc12` [HEPTAPHYLLINE] displayed an MIC90 in data set [1] above 50 µM.

As to `NNC(=O)c1ccncc1` [ISONIAZID], in data set [1], the MIC90 worked out at 0.24 µM (≈ 0.0329 µg/mL). The pIC50 with Vero is below 4.30. Besides, the selectivity ratio in data set [2] was above 208.

In the case of `COC(=O)c1cc2c(cc1O)[nH]c1ccccc12` [MUKONIDINE], in data set [1], the MIC90 is 23.3 µM (≈ 5.62 µg/mL).

Consider `CO[C@H]1/C=C/O[C@@]2(C)Oc3c(C)c(O)c4c(O)c(c(/C=N/N5CCN(C)CC5)c(O)c4c3C2=O)NC(=O)/C(C)=C\C=C\[C@H](C)[C@H](O)[C@@H](C)[C@@H](O)[C@@H](C)[C@H](OC(C)=O)[C@@H]1C` [RIFAMPIN], for which the MIC90 in data set [1] turned out to be 0.02 µM (≈ 0.0165 µg/mL). The negative logarithm of the IC50 (pIC50) in the data set with Vero was below 4.30. For the same molecule, the selectivity ratio in data set [2] is above 2500.
